Experimental findings from PMC8344761 (Journal of Enzyme Inhibition and Medicinal Chemistry, 2021) are described below.

One series deals with T1, VEGFR-2 tyrosine kinase (Homo sapiens, UniProt P35968).
T1 construct: purchased Promega
As to the kind of experiment: VEGFR-2 (KDR) kinase assay (ADP-glow). It counts as biochemical. To be noted: fixed concentration 1 µM; read-out: inhibitory activity against VEGFR-2 tyrosine kinase. A general note: ADP-Glo turns the ADP formed in a reaction into a luminescent signal.

In a further series the target is B-Raf (V600E) (Homo sapiens, UniProt P15056, V600E). As to the kind of experiment: Raf kinase assay (Kinase HotSpot, Reaction Biology Corp.). It counts as biochemical. To be noted: for inhibition at 1 µM: fixed concentration 1 μM, mean of two independent experiments, B-Raf (V599E). On the procedure: (§1) Compounds were delivered into each Raf reaction, followed ∼20 min later by addition of a mixture of ATP and [γ-^33P-ATP] (specific activity approx. 500 cpm/pmol, concentration as required) to a final concentration of 10 µM. After incubation for 40 min at 25 °C, the reaction was stopped by the addition of a 3% phosphoric acid solution. Then, the reaction was spotted onto a P30 filtermat, and unbound phosphate was removed by washing three times for 5 min in 75 mM phosphoric acid and once in methanol prior to drying and scintillation counting. […] IC50 values and curve fits were obtained using Prism (GraphPad Software, La Jolla, CA).
Chain of B-Raf (V600E) (P15056 whole entry V600E): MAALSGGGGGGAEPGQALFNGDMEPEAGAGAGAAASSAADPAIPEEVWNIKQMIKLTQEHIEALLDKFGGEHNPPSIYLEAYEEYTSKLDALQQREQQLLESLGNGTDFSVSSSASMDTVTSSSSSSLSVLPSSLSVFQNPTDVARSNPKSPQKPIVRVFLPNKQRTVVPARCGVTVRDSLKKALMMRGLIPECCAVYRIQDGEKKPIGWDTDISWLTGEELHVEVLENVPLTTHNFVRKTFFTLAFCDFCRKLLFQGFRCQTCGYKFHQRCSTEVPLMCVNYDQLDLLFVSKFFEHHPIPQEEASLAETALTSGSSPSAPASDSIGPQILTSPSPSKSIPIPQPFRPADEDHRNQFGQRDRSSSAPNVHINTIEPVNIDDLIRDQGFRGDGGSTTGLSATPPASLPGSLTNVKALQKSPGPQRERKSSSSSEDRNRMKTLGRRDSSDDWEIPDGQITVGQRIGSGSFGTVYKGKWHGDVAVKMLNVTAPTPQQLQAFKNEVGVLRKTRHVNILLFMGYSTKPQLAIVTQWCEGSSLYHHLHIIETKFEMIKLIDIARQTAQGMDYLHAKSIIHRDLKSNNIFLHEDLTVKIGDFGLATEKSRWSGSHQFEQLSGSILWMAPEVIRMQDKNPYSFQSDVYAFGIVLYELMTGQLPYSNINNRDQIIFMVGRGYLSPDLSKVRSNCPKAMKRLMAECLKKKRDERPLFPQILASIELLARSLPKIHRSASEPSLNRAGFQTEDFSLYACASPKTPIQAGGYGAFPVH

Another series addresses B-Raf (Homo sapiens, UniProt P15056). The description is as above. It counts as biochemical. To be noted: for inhibition at 1 µM: fixed concentration 1 μM, mean of two independent experiments. The procedure: as §1
For the next series, the target named is C-Raf (Homo sapiens, UniProt P04049). The series is described as above. It counts as biochemical. Particulars: for inhibition at 1 µM: read-out: Inhibition (%) C-Raf. On the procedure:
as §1

In a further series the test system is HepG2. The experiment in a line: Cell proliferation assay (MTT). It counts as cell-based. To be noted: Homo sapiens, 48 h, mean ± SEM of three independent experiments, read-out: Cancer cell proliferation IC50 HepG2. On the procedure: (§2) Hepatocellular carcinoma cell lines (HepG2, Huh7), human pancreatic ductal epithelial cell line (H6c7), and normal human colon cell line (CCD841) were obtained from the American Type Culture Collection (ATCC) (Manassas, VA, USA). Cells were cultured in DMEM/High Glucose media (Hep3B, Huh7, CCD841) or MEM/EBSS media (HepG2) containing 10% FBS, 100 IU/ml of penicillin and 100 µg/ml of streptomycin. H6c7 cells were cultured in keratinocyte serum free media supplemented with epidermal growth factor and bovine pituitary extract. Cells were maintained in 5% CO2 humidified atmosphere at 37 °C.
(§3) Cells were seeded in a 96-well plate and allowed to adhere for 24 h. The cells were serum starved in 1% serum containing medium for 12 h, and then treated with drugs in 10% serum-containing medium. After incubation for 48 h, cell proliferation was measured using MTT assay. Optical density was measured at 540 nm using a Spectrostar Nano microplate reader (BMG LABTECH GmbH, Ortenberg, Germany).

In a further series the test system is Hep3B. As to the kind of experiment: Cell proliferation assay (MTT). It counts as cell-based. Particulars: Homo sapiens, 48 h, mean ± SEM of three independent experiments, read-out: Cancer cell proliferation IC50 Hep3B. On the procedure:
as §2, §3

Another series relates to Huh7. The experiment in a line: Cell proliferation assay (MTT). Format: cell-based. To be noted: Homo sapiens, Huh-7, 48 h, mean ± SEM of three independent experiments, read-out: Cancer cell proliferation IC50 Huh7. On the procedure:
as §2, §3

The target of a further series is T2, A-Raf (Homo sapiens, UniProt P10398).
T2 sequence (P10398 1-606): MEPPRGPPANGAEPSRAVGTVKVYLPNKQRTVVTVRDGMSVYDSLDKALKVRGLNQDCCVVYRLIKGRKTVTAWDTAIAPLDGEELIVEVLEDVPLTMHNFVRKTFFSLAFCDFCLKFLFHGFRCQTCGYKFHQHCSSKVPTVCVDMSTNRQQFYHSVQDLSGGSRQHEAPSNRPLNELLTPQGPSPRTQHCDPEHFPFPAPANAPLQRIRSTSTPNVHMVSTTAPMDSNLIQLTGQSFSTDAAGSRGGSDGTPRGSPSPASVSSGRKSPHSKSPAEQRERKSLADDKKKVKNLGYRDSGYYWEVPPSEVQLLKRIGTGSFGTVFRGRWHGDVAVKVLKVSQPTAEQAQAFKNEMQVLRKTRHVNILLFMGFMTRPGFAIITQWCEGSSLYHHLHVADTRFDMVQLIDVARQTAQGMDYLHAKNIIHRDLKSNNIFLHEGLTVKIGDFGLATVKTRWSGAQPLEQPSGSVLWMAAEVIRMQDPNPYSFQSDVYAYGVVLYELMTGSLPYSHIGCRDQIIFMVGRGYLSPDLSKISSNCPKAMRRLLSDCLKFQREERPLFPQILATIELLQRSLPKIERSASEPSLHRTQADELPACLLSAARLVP
The experiment in a line: Raf kinase assay (Kinase HotSpot, Reaction Biology Corp.). It counts as biochemical. Particulars: for inhibition at 1 µM: fixed concentration 1 μM, mean of two independent experiments. The procedure: Compounds were delivered into each Raf reaction, followed ∼20 min later by addition of a mixture of ATP and [γ-^33P-ATP] (specific activity approx. 500 cpm/pmol, concentration as required) to a final concentration of 10 µM. […] Then, the reaction was spotted onto a P30 filtermat, and unbound phosphate was removed by washing three times for 5 min in 75 mM phosphoric acid and once in methanol prior to drying and scintillation counting. […] IC50 values and curve fits were obtained using Prism (GraphPad Software, La Jolla, CA).

For a further series, the system named is Hep3B cells. The experiment in a line: Sphere formation assay. It counts as cell-based. Particulars: Homo sapiens, 48 h drug treatment, 13 days culture, read-out: % Inhibition of sphere forming Hep3B. The procedure: (§4) Sphere forming ability of Hep3B and Huh7 cells were examined after incubation with drugs for 48 h. Briefly, 3 × 10^3 cells which were pre-treated with or without drugs in prEGM media (Lonza, Basel, Switzerland) were seeded on an ultra-low adhering 24 well plate (Corning Incorporated Costar, Corning, NY). Twice a week, 500 µL of used medium was replaced with fresh prEGM media. At 13 days after plating, images of spheres were captured using Celloger Mini (Curiosis Inc., Seoul, South Korea). The number of spheroids over 50 µm in diameter was counted by using Image J software (National Institute of Health, Bethesda, MD).

The next series relates to Huh7 cells. The experiment in a line: Sphere formation assay. Format: cell-based. To be noted: Homo sapiens, Huh-7, 48 h drug treatment, 13 days culture, read-out: % Inhibition of sphere forming Huh7. On the procedure: as §4
The nature of series [1]: Cytotoxicity assay (MTT), normal cells. It counts as cell-based, human. Particulars: human, mean ± SEM. The procedure: as §2
(§5) Cells were seeded in a 96-well plate and allowed to adhere for 24 h. Cells in low serum (1%)-containing medium were treated with drugs for 48 h. In case of H6c7 cells, cells in keratinocyte serum free media were treated with drugs for 48 h. Then, cell viability was measured using MTT assay. Optical density was measured at 540 nm using a Spectrostar Nano microplate reader (BMG LABTECH).

Series [2] has as its system Huh7 cells xenografted onto CAM. The experiment in a line: Huh7-xenografted CAM tumour model. It counts as in vivo, chick. Particulars: 10 µM final concentration on CAM; Huh7 xenograft. On the procedure:
Cancer cell xenograft onto chick chorioallantoic membrane (CAM), an in vivo tumour model, was used to evaluate anti-tumour efficacy of compounds. Fertilised chicken eggs purchased from Byeolbichon Farm (Gyeongbuk, South Korea) were incubated at 37 °C with 55% relative humidity. On day 9 of egg incubation (embryonic day 9, E9), a small hole was made in the shell over the air sac after the selection of bifurcated vessels. Another hole was made on the broadside using a needle by applying negative pressure from the wider part, creating false air sac. Using a grinding wheel (Dremel, Racine, WI), a small window (1 cm^2) was created in the eggshell above the false air sac. For generation of xenograft CAM tumour model, Huh7 cells (1.5 × 10^6 cells/CAM) were inoculated on the CAM with or without test drugs (10 µM final concentration). On day 13 of egg incubation (E13), tumour tissues attached to CAM were resected from the embryo and harvested. Photographs of tumour as well as blood vessel branches were taken using optical microscope (Olympus Corporation, Tokyo, Japan). Tumour tissues were weighted and the number of vessel branch points within the tumour region was counted.

The next series concerns CCD841. The experiment in a line: Cytotoxicity assay (MTT), normal cells. It counts as cell-based, human. Particulars: normal colon epithelial cell line, 48 h, mean ± SEM. On the procedure:
as §2, §5

A further series has as its system H6c7. As to the kind of experiment: Cytotoxicity assay (MTT), normal cells. It counts as cell-based, human. To be noted: normal pancreatic ductal epithelial cell line, 48 h, mean ± SEM. The procedure: as §2, §5
Where [3] appears, read: fixed concentration 1 μM, mean of two independent experiments.
The mark [4] stands for this setting: CCD841 cells (normal colon epithelial cell line).
[5] abbreviates: H6c7 cells (normal pancreatic ductal epithelial cell line).

Molecules are shown by their SMILES. Read-outs that look alike come from different tables or passages of the source.

Chain of B-Raf (P15056 whole entry): as the sequence (P15056 whole entry V600E) above, with E600V counted along it
Chain of C-Raf (P04049 whole entry): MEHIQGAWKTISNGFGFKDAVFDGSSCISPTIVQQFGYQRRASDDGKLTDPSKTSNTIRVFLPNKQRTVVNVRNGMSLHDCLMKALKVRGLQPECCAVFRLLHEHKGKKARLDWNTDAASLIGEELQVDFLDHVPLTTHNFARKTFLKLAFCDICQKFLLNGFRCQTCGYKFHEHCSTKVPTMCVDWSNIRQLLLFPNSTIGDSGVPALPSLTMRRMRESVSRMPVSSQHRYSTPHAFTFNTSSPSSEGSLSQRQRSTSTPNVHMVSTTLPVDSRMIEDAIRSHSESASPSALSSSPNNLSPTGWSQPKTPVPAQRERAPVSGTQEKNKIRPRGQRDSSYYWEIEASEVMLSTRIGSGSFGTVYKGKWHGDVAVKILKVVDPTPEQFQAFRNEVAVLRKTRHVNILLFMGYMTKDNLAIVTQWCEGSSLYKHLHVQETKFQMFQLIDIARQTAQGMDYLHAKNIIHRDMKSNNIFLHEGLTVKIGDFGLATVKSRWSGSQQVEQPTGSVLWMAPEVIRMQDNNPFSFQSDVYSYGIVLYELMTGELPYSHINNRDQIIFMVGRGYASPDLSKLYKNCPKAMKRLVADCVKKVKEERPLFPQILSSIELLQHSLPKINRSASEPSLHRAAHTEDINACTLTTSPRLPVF
T1 sequence (P35968 20-1356): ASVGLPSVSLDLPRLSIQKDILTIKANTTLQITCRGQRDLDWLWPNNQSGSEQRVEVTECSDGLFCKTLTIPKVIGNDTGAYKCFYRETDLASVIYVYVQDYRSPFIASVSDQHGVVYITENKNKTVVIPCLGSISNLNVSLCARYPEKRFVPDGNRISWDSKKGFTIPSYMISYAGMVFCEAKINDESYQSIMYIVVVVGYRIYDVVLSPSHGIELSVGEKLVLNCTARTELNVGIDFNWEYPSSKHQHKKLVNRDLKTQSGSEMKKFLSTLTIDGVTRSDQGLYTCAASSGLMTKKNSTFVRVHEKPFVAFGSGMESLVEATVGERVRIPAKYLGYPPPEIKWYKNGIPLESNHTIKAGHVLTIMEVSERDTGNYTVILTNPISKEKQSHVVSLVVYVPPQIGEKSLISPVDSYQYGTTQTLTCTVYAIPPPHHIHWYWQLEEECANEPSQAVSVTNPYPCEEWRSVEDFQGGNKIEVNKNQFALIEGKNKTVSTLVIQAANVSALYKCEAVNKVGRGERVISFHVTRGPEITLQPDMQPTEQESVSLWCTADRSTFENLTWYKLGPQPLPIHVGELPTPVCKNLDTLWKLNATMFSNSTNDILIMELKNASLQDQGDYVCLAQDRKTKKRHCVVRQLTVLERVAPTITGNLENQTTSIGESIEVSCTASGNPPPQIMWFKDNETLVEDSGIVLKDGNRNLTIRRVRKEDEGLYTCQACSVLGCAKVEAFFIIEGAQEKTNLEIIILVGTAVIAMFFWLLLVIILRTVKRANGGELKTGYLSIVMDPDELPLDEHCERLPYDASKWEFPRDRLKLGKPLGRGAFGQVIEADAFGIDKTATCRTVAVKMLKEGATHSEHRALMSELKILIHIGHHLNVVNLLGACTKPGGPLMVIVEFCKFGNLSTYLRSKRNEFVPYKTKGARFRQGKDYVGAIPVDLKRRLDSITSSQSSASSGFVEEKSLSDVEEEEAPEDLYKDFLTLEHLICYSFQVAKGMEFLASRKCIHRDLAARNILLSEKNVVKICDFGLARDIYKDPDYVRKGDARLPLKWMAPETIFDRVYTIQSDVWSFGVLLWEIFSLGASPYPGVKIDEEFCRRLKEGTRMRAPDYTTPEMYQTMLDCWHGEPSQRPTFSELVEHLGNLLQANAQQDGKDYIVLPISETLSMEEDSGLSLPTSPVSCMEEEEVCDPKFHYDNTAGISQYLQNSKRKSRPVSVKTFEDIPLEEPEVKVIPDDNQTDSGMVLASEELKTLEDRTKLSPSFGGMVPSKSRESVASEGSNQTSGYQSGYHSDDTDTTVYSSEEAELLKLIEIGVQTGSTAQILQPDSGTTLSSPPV

In turn, `CNC(=O)c1cc(Oc2c(C)nc(NC(=O)Nc3cccc(C(F)(F)F)c3)c(C)c2C)ccn1` [Compound 6, N-Methyl-4-((2,4,5-trimethyl-6–(3-(3-(trifluoromethyl)phenyl)ureido)pyridin-3-yl)oxy)picolinamide] displayed a melting point of 244 °C. Besides, the inhibition at 1 µM at VEGFR-2 tyrosine kinase was roughly -6%. The inhibition at 1 µM against B-Raf (V600E) turned out to be 88.2%. Also, the IC50 at B-Raf (V600E) (mean ± SD of two independent experiments, read-out: In vitro Raf kinase inhibition IC50 B-Raf(V600E)) came out at 0.07 ± 0.0004 µM. In addition, the inhibition at 1 µM against B-Raf stood at 65%. The IC50 on B-Raf (mean ± SD of two independent experiments, read-out: In vitro Raf kinase inhibition IC50 B-Raf) was 0.216 ± 0.0436 µM. For the same compound, on C-Raf (setting [3]), the inhibition at 1 µM was found to be 92.5%. The IC50 at C-Raf (mean ± SD of two independent experiments, read-out: In vitro Raf kinase inhibition IC50 C-Raf) worked out at 0.022 ± 0.0008 µM. Further, the IC50 with HepG2 stood at 5.02 ± 0.06 µM. Also, in the series on Hep3B, the IC50 worked out at 6.49 ± 0.12 µM. Besides, the IC50 in the series with Huh7 came out at 4.77 ± 0.09 µM. For the same compound, on A-Raf, the inhibition at 1 µM is 84.6%. For the same compound, the IC50 on A-Raf (mean ± SD of two independent experiments, read-out: In vitro Raf kinase inhibition IC50 A-Raf) is 0.057 ± 0.0086 µM. Besides, in the series on Hep3B cells, the inhibition at 1 µM stood at 38.3% and the inhibition at 10 µM stood at 55.6%. Also, in the series with Huh7 cells, the inhibition at 1 µM was 23.8% and the inhibition at 10 µM was 44.2%. For the same compound, the CC50 at 48 h in series [1] (setting [4]) was greater than 10 µM. Also, in series [1] (setting [5]), the 50% cytotoxic concentration (CC50) at 48 h is greater than 10 µM.
In the case of `CNC(=O)c1cc(Oc2c(C)nc(NC(=O)NC(=O)c3ccccc3)c(C)c2C)ccn1` [Compound 21, 4-((6-(3-Benzoylureido)-2,4,5-trimethylpyridin-3-yl)oxy)-N-methylpicolinamide], the melting point was determined as 177 °C. Also, the inhibition at 1 µM on B-Raf (V600E) stood at 26.7%. Further, the inhibition at 1 µM on B-Raf worked out at 8.6%. At C-Raf (setting [3]), the inhibition at 1 µM turned out to be 35.2%. Further, at A-Raf, the inhibition at 1 µM turned out to be 18.9%.
`CNC(=O)c1cc(Oc2c(C)nc(NC(=O)Nc3ccc(N)cc3)c(C)c2C)ccn1` [Compound 23, 4-((6-(3-(4-Aminophenyl)ureido)-2,4,5-trimethylpyridin-3-yl)oxy)-N-methylpicolinamide] showed a melting point of 205 °C. Also, the inhibition at 1 µM at B-Raf (V600E) is 11.6%. The inhibition at 1 µM against B-Raf amounted to 0.3%. Besides, the inhibition at 1 µM on C-Raf (setting [3]) was determined as 6.7%. The inhibition at 1 µM at A-Raf is 11%.
As for `Cc1nc(NC(=O)Nc2ccc(Cl)c(C(F)(F)F)c2)c(C)c(C)c1OCc1ccccc1` [Compound 24, 1-(5-(Benzyloxy)-3,4,6-trimethylpyridin-2-yl)-3-(4-chloro-3-(trifluoromethyl)phenyl)urea], the melting point amounted to 206 °C. Besides, the inhibition at 1 µM against B-Raf (V600E) worked out at 4.4%. In addition, the inhibition at 1 µM against B-Raf is -19.3%. Besides, on C-Raf (setting [3]), the inhibition at 1 µM was -8.3%. Moreover, the inhibition at 1 µM against A-Raf worked out at 11.9%.
Turning to `CNC(=O)c1cc(Oc2c(C)nc(NC(=O)Nc3ccc(Cl)c(C(F)(F)F)c3)nc2C)ccn1` [Compound 28, 4-((2-(3-(4-Chloro-3-(trifluoromethyl)phenyl)ureido)-4,6-dimethylpyrimidin-5-yl)oxy)-N-methylpicolinamide], the melting point is 251 °C. The inhibition at 1 µM against B-Raf (V600E) was determined as 75.2%. Besides, the inhibition at 1 µM against B-Raf is 48.5%. For the same compound, the inhibition at 1 µM on C-Raf (setting [3]) is 91%. The inhibition at 1 µM against A-Raf was determined as 72.4%.
Turning to `CNC(=O)c1cc(Oc2ccc(NC(=O)Nc3ccc(Cl)c(C(F)(F)F)c3)cc2)ccn1` [Sorafenib, reference compound], the inhibition at 1 µM on C-Raf amounted to 97.6%; against A-Raf it was 93.7%; in the series on Hep3B cells, 43.6%; with Huh7 cells, 59.7%. For the same compound, the “inhibition of tumour-induced angiogenesis (new vessel branches)” value in series [2] is given as “significantly blocked”. The IC50 with HepG2 stood at 1.29 ± 0.02 µM; with Hep3B, 1.22 ± 0.05 µM; with Huh7 it was 1.17 ± 0.04 µM. Further, the inhibition at 10 µM in the series with Hep3B cells came out at 56.4%; with Huh7 cells it was 85.9%. Also, the CC50 worked out at 4.08 ± 0.58 µM with CCD841 and 4.36 ± 0.21 µM in the series on H6c7. The results for the CC50 at 48 h in series [1] (setting [4]) and in series [1] (setting [5]) were roughly 4.1 µM and roughly 4.4 µM, respectively.

The term melting point denotes the temperature, or range, at which the solid turns liquid. As a reminder, the CC50 is the concentration at which the toxic effect on the cells reaches its halfway point.
